± gives the standard deviation of the averaged measurements.

Compound in one experiment: Cc1cn(-c2cc(NC(=O)c3ccc(C)c(Nc4nccc(-c5cccnc5)n4)c3)cc(C(F)(F)F)c2)cn1 [NILOTINIB]
In words: surviving fraction relative to DMSO-only wells; higher = less growth inhibition. As to conditions: exposure time: 5 days. An outline of the steps: (§1)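 Luminescence normalised to the median of DMSO-only wells defines surviving fraction, with viability read by CellTiter-Glo. Signal was recorded after 10 minutes at room temperature, once log-phase tumour cell lines seeded at 250–500 cells per well in 384-well plates had spent 24 hours settling and then five days under continuous exposure to inhibitors at 0.5, 1, 5, 10, 50, 100, 500 and 1000 nM.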

Compound in experiment [1]: C[C@@H]1CN(CC(=O)Nc2ccc3c(c2)Cc2cccc(-c4cc(=O)cc(N5CCOCC5)o4)c2S3)C[C@H](C)O1
The experiment is described as above. As to conditions: exposure time: 5 days. An outline of the steps:
as §1

As for S68 BREAST, the surviving fraction with NILOTINIB (0.5 nM) is 1 ± 0.3; with NILOTINIB (1 nM), 1.1 ± 0.14; with NILOTINIB (5 nM) it was 1.34 ± 0.29; with NILOTINIB (10 nM), 1.06 ± 0.32; with NILOTINIB (50 nM) it was 0.643 ± 0.041; with NILOTINIB (100 nM) it was 0.846 ± 0.29. For the same test system, the surviving fraction amounted to 0.449 ± 0.18 with NILOTINIB (500 nM); 0.544 ± 0.2 in the experiment with NILOTINIB (1000 nM); 1.03 ± 0.2 in experiment [1] (0.5 nM); 1.16 ± 0.29 in experiment [1] (1 nM); 1.09 ± 0.28 in experiment [1] (5 nM); 1.24 ± 0.22 in experiment [1] (10 nM). In addition, the surviving fraction in experiment [1] (50 nM) worked out at 0.826 ± 0.13; in experiment [1] (100 nM) it was 0.79 ± 0.18; in experiment [1] (500 nM), 0.589 ± 0.086; in experiment [1] (1000 nM), 0.516 ± 0.076.

With HCC78 LUNG, the surviving fraction with NILOTINIB (0.5 nM) was 1.01 ± 0.092; with NILOTINIB (1 nM), 0.993 ± 0.085; in the experiment with NILOTINIB (5 nM), 0.994 ± 0.055; with NILOTINIB (10 nM), 1.1 ± 0.12; with NILOTINIB (50 nM), 1.05 ± 0.09; in the experiment with NILOTINIB (100 nM), 1.1 ± 0.095. Also, the surviving fraction in the experiment with NILOTINIB (500 nM) amounted to 0.719 ± 0.085; with NILOTINIB (1000 nM) it was 0.525 ± 0.03; in experiment [1] (0.5 nM) it was 1.13 ± 0.16; in experiment [1] (1 nM), 0.941 ± 0.26; in experiment [1] (5 nM) it was 1.07 ± 0.11; in experiment [1] (10 nM), 1.21 ± 0.21. Further, the surviving fraction in experiment [1] (50 nM) came to 1.15 ± 0.17; in experiment [1] (100 nM) it was 1.41 ± 0.29; in experiment [1] (500 nM) it was 1.27 ± 0.39; in experiment [1] (1000 nM), 1.29 ± 0.013.

CASKI CERVIX: the surviving fraction worked out at 0.914 ± 0.026 with NILOTINIB (0.5 nM); 0.993 ± 0.024 in the experiment with NILOTINIB (1 nM); 1.01 ± 0.063 in the experiment with NILOTINIB (5 nM); 0.96 ± 0.045 with NILOTINIB (10 nM); 0.88 ± 0.063 with NILOTINIB (50 nM); 0.785 ± 0.035 with NILOTINIB (100 nM). Moreover, the surviving fraction in the experiment with NILOTINIB (500 nM) is 0.764 ± 0.13; with NILOTINIB (1000 nM), 0.77 ± 0.075; in experiment [1] (0.5 nM), 0.925 ± 0.041; in experiment [1] (1 nM) it was 0.982 ± 0.035; in experiment [1] (5 nM), 0.963 ± 0.019; in experiment [1] (10 nM), 0.989 ± 0.07. For the same test system, the surviving fraction in experiment [1] (50 nM) was found to be 0.91 ± 0.047; in experiment [1] (100 nM) it was 0.855 ± 0.057; in experiment [1] (500 nM) it was 0.759 ± 0.04; in experiment [1] (1000 nM), 0.625 ± 0.037.

With CADOES1 SOFT TISSUE, the surviving fraction with NILOTINIB (0.5 nM) turned out to be 1.02 ± 0.17; with NILOTINIB (1 nM) it was 0.987 ± 0.05; with NILOTINIB (5 nM), 1.01 ± 0.13; with NILOTINIB (10 nM), 0.93 ± 0.071; with NILOTINIB (50 nM), 0.932 ± 0.13; in the experiment with NILOTINIB (100 nM), 1.02 ± 0.045. For the same test system, the surviving fraction with NILOTINIB (500 nM) was found to be 0.963 ± 0.055; in the experiment with NILOTINIB (1000 nM), 1.01 ± 0.057; in experiment [1] (0.5 nM), 0.951 ± 0.15; in experiment [1] (1 nM), 0.965 ± 0.065; in experiment [1] (5 nM), 0.974 ± 0.07; in experiment [1] (10 nM) it was 0.981 ± 0.084. In addition, the surviving fraction in experiment [1] (50 nM) came to 1.11 ± 0.055; in experiment [1] (100 nM), 0.995 ± 0.1; in experiment [1] (500 nM), 1.01 ± 0.096; in experiment [1] (1000 nM) it was 1.02 ± 0.032.

Regarding LNCAP PROSTATE, the surviving fraction with NILOTINIB (0.5 nM) worked out at 1.12 ± 0.083; with NILOTINIB (1 nM), 1.13 ± 0.12; with NILOTINIB (5 nM), 1.08 ± 0.011; with NILOTINIB (10 nM), 1.01 ± 0.072; in the experiment with NILOTINIB (50 nM), 1.14 ± 0.076; in the experiment with NILOTINIB (100 nM) it was 1.1 ± 0.15. Further, the surviving fraction was determined as 1.16 ± 0.031 with NILOTINIB (500 nM); 1.03 ± 0.066 with NILOTINIB (1000 nM); 1.08 ± 0.12 in experiment [1] (0.5 nM); 1.12 ± 0.15 in experiment [1] (1 nM); 1.11 ± 0.11 in experiment [1] (5 nM); 1.12 ± 0.16 in experiment [1] (10 nM). Also, the surviving fraction in experiment [1] (50 nM) is 1.4 ± 0.029; in experiment [1] (100 nM), 1.43 ± 0.095; in experiment [1] (500 nM) it was 1.4 ± 0.11; in experiment [1] (1000 nM), 1.21 ± 0.15.

Consider HCC1806 BREAST, for which the surviving fraction was found to be 0.977 ± 0.016 with NILOTINIB (0.5 nM); 0.97 ± 0.048 with NILOTINIB (1 nM); 1.1 ± 0.14 with NILOTINIB (5 nM); 1.02 ± 0.067 with NILOTINIB (10 nM); 0.844 ± 0.088 in the experiment with NILOTINIB (50 nM); 0.755 ± 0.083 with NILOTINIB (100 nM). The surviving fraction came to 0.666 ± 0.044 in the experiment with NILOTINIB (500 nM); 0.781 ± 0.026 in the experiment with NILOTINIB (1000 nM); 1.05 ± 0.14 in experiment [1] (0.5 nM); 1.07 ± 0.086 in experiment [1] (1 nM); 1.12 ± 0.08 in experiment [1] (5 nM); 1.1 ± 0.035 in experiment [1] (10 nM). In addition, the surviving fraction in experiment [1] (50 nM) came out at 0.959 ± 0.067; in experiment [1] (100 nM), 0.949 ± 0.12; in experiment [1] (500 nM), 0.699 ± 0.065; in experiment [1] (1000 nM), 0.477 ± 0.024.

As for MDAMB468 BREAST, the surviving fraction with NILOTINIB (0.5 nM) stood at 0.908 ± 0.055; in the experiment with NILOTINIB (1 nM) it was 0.931 ± 0.043; in the experiment with NILOTINIB (5 nM), 0.935 ± 0.069; with NILOTINIB (10 nM), 1.05 ± 0.024; in the experiment with NILOTINIB (50 nM), 0.927 ± 0.037; in the experiment with NILOTINIB (100 nM), 0.835 ± 0.0095. The surviving fraction with NILOTINIB (500 nM) came to 0.9353 ± 0.0015; with NILOTINIB (1000 nM), 0.927 ± 0.045; in experiment [1] (0.5 nM), 0.975 ± 0.015; in experiment [1] (1 nM), 0.921 ± 0.024; in experiment [1] (5 nM), 0.951 ± 0.026; in experiment [1] (10 nM), 1 ± 0.025. The surviving fraction turned out to be 0.935 ± 0.018 in experiment [1] (50 nM), 1 ± 0.091 in experiment [1] (100 nM), 0.824 ± 0.12 in experiment [1] (500 nM) and 0.756 ± 0.076 in experiment [1] (1000 nM).

Consider “JURKAT HAEMATOPOIETIC AND LYMPHOID TISSUE”, for which the surviving fraction was determined as 1.1 ± 0.025 with NILOTINIB (0.5 nM); 1.1 ± 0.027 in the experiment with NILOTINIB (1 nM); 1.07 ± 0.029 with NILOTINIB (5 nM); 1.06 ± 0.021 with NILOTINIB (10 nM); 1.042 ± 0.009 with NILOTINIB (50 nM); 1.02 ± 0.044 with NILOTINIB (100 nM). For the same test system, the surviving fraction was determined as 1.04 ± 0.026 with NILOTINIB (500 nM); 0.91 ± 0.057 with NILOTINIB (1000 nM); 1.1 ± 0.013 in experiment [1] (0.5 nM); 1.123 ± 0.0098 in experiment [1] (1 nM); 1.08 ± 0.016 in experiment [1] (5 nM); 1.09 ± 0.026 in experiment [1] (10 nM). Moreover, the surviving fraction in experiment [1] (50 nM) came to 1.05 ± 0.026; in experiment [1] (100 nM) it was 1.03 ± 0.029; in experiment [1] (500 nM) it was 1.01 ± 0.018; in experiment [1] (1000 nM), 0.96 ± 0.029.

Values taken from the supplement of paper PMC6045584.
